Assay results taken from PMC13064811, “The Role of Disulfide Bonds in the GluN1 Subunit in the Early Trafficking and Functional Properties of GluN1/GluN2 and GluN1/GluN3 NMDA Receptors” (The Journal of Neuroscience, 2026).

Experiments:
hGluN1-4a/hGluN2A = biological target: T1, hGluN1-4a/hGluN2A (Homo sapiens, UniProt Q05586+Q12879); assay type: cell-based
T1 construct: GluN1-4a (hGluN1-4a; NP_000823.4); GluN2A (hGluN2A; NP_001127879.1); expressed in transfected cells; host or cells: HEK293T

hGluN1-4a-C744Y/hGluN2A = biological target: T2, hGluN1-4a-C744Y/hGluN2A (Homo sapiens, UniProt Q05586+Q12879, C744Y); assay type: cell-based
T2 construct: GluN1-4a (hGluN1-4a; NP_000823.4); GluN2A (hGluN2A; NP_001127879.1); expressed in transfected cells; host or cells: HEK293T

hGluN1-4a/hGluN2B [1] = biological target: T3, hGluN1-4a/hGluN2B (Homo sapiens, UniProt Q05586+Q13224); assay type: cell-based; conditions: pretreatment with 4 mM DTT or 0.5 mM DTNB, each for 2 min
T3 construct: GluN1-4a (hGluN1-4a; NP_000823.4); GluN2B (hGluN2B; NP_000825.2); expressed in transfected cells; host or cells: HEK293T

hGluN1-4a-C744Y/hGluN2B = biological target: T4, hGluN1-4a-C744Y/hGluN2B (Homo sapiens, UniProt Q05586+Q13224, C744Y); assay type: cell-based
T4 construct: GluN1-4a (hGluN1-4a; NP_000823.4); GluN2B (hGluN2B; NP_000825.2); expressed in transfected cells; host or cells: HEK293T

GluN1-C454S/GluN2B = conditions: read-out: EC50 glycine; cited from earlier work
GluN1-C455S/GluN2B = conditions: read-out: EC50 glycine; cited from earlier work
GluN1-C436S/GluN2B = conditions: read-out: EC50 glycine; cited from earlier work
[2] = biological target: GluN1-C79S-C308S/GluN2A receptors; conditions: read-out: EC50 value for glycine; cited from earlier work
[3] = biological target: YFP-hGluN1-1a-C744Y/hGluN2B (Homo sapiens, UniProt Q05586+Q13224, C744Y); assay type: cell-based
[4] = biological target: GluN1-C744Y/GluN2A receptors; conditions: read-out: EC50 value for glycine; cited from earlier work
[5] = biological target: YFP-hGluN1-1a-C744Y/hGluN2A (Homo sapiens, UniProt Q05586+Q12879, C744Y); assay type: cell-based
[6] = test system: YFP-GluN1-1a-C744S-C798S/GluN3A
YFP-hGluN1-1a/hGluN2B = YFP-hGluN1-1a/hGluN2B (Homo sapiens, UniProt Q05586+Q13224); assay type: cell-based
[7] = test system: YFP-hGluN1-1a-C744Y/hGluN3A
YFP-hGluN1-1a/hGluN2A = YFP-hGluN1-1a/hGluN2A (Homo sapiens, UniProt Q05586+Q12879); assay type: cell-based
[8] = biological target: YFP-GluN1-1a-C420S-C454S/GluN2A (Rattus norvegicus, UniProt P35439+Q00959, C420S/C454S)
[9] = biological target: YFP-GluN1-1a-C744S-C798S/GluN2A (Rattus norvegicus, UniProt P35439+Q00959, C744S/C798S)
[10] = biological target: YFP-GluN1-1a-C744S-C798S/GluN2B (Rattus norvegicus, UniProt P35439+Q00960, C744S/C798S)
[11] = biological target: GluN1-4a-C436S-C455S/GluN2A (Rattus norvegicus, UniProt P35439+Q00959, C436S/C455S)
[12] = biological target: YFP-GluN1-1a-C420S-C454S/GluN2B (Rattus norvegicus, UniProt P35439+Q00960, C420S/C454S)
[13] = biological target: GluN1-4a-C79S-C308S/GluN2A (Rattus norvegicus, UniProt P35439+Q00959, C308S/C79S)
[14] = biological target: GluN1-4a-C744S-C798S/GluN2A (Rattus norvegicus, UniProt P35439+Q00959, C744S/C798S)
YFP-GluN1-1a/GluN2A = YFP-GluN1-1a/GluN2A (Rattus norvegicus, UniProt P35439+Q00959)
GluN1-4a/GluN2B = GluN1-4a/GluN2B (Rattus norvegicus, UniProt P35439+Q00960)
[15] = biological target: YFP-GluN1-4a-C436S-C455S/GluN2A (Rattus norvegicus, UniProt P35439+Q00959, C436S/C455S)
YFP-GluN1-1a/GluN2B = YFP-GluN1-1a/GluN2B (Rattus norvegicus, UniProt P35439+Q00960)
[16] = biological target: YFP-GluN1-1a-C79S-C308S/GluN2A (Rattus norvegicus, UniProt P35439+Q00959, C308S/C79S)
[17] = biological target: GluN1-4a-C79S-C308S/GluN2B (Rattus norvegicus, UniProt P35439+Q00960, C308S/C79S)
[18] = biological target: YFP-GluN1-1a-C79S-C308S/GluN2B (Rattus norvegicus, UniProt P35439+Q00960, C308S/C79S)
[19] = biological target: GluN1-4a-C744S-C798S/GluN2B (Rattus norvegicus, UniProt P35439+Q00960, C744S/C798S)
[20] = biological target: GluN1-4a-C436S-C455S/GluN2B (Rattus norvegicus, UniProt P35439+Q00960, C436S/C455S)
[21] = biological target: GluN1-4a-C420S-C454S/GluN2A (Rattus norvegicus, UniProt P35439+Q00959, C420S/C454S)
[22] = biological target: YFP-GluN1-4a-C436S-C455S/GluN2B (Rattus norvegicus, UniProt P35439+Q00960, C436S/C455S)
GluN1-4a/GluN2A = GluN1-4a/GluN2A (Rattus norvegicus, UniProt P35439+Q00959)
hGluN1-4a/hGluN2B [23] = biological target: T3, hGluN1-4a/hGluN2B; design: method as in Konecny et al., 2024; conditions: ref Konecny et al., 2024, cited from earlier work
[24] = test system: hippocampal neurons expressing YFP-hGluN1-1a or YFP-hGluN1-1a-C744Y subunits; assay: NMDA-induced excitotoxicity assay; assay type: cell-based, rat; conditions: 10 µM memantine; death induced by 30 µM NMDA and 10 µM glycine
[25] = pretreatment with 4 mM DTT or 0.5 mM DTNB, each for 2 min
[26] = 1 mM L-glutamate and 100 µM glycine, −60 mV
[27] = offset of inhibition, 1 mM glutamate and 100 µM glycine
[28] = onset of inhibition, 1 mM glutamate and 100 µM glycine

YFP-hGluN1-1a-C744Y/hGluN2B, sequence (Q13224 27-1484, other chains not shown): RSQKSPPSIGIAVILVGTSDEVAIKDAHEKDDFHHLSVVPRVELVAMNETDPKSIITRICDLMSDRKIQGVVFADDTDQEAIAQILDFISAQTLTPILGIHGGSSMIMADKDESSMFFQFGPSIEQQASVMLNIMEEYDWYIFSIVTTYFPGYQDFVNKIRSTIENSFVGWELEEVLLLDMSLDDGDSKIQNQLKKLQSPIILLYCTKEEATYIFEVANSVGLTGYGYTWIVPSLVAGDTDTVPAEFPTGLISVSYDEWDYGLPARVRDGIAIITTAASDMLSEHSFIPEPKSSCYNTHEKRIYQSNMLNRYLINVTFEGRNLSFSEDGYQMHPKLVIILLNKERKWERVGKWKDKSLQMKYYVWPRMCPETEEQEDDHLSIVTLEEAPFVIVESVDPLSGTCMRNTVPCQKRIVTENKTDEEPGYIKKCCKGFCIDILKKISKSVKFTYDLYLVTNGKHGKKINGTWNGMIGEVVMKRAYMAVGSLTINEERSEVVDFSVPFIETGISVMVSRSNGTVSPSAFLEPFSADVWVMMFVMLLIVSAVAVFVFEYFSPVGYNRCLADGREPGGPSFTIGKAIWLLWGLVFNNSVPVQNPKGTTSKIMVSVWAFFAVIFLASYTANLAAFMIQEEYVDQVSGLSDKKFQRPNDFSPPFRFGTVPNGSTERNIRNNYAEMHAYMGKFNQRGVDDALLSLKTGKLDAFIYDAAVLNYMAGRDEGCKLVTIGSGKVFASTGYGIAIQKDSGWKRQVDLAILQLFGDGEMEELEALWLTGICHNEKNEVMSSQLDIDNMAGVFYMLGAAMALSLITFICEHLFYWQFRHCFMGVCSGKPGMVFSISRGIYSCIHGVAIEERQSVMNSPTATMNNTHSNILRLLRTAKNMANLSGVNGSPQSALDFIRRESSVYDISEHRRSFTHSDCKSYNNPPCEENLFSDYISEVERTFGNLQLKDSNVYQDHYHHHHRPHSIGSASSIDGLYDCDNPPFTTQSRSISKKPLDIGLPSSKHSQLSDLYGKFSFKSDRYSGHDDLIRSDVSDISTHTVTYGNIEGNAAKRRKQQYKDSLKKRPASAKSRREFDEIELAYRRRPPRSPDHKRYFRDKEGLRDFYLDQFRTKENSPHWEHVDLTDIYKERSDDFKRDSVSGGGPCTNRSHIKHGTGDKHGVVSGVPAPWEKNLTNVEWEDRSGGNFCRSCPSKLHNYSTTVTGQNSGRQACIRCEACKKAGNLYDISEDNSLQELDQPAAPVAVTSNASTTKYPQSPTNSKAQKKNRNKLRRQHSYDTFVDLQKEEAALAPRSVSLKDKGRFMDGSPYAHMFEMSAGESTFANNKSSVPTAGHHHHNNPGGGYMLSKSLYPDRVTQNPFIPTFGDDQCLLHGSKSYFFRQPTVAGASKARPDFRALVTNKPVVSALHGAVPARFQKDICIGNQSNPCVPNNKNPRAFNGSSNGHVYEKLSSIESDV
T4 sequence (Q13224 27-1484, other chains not shown): as above
T3 sequence (Q13224 27-1484, other chains not shown): as above

With `O[C@@H](CS)[C@@H](O)CS` (racemic) [DTT, dithiothreitol] the “effect on peak current amplitudes (redox sensitivity)” value (“effect on peak current amplitudes” for short) (hGluN1-4a/hGluN2A; [25]) was “neither condition (DTT or DTNB) altered the peak current amplitudes”, the “effect on peak current amplitudes” value (hGluN1-4a-C744Y/hGluN2A; [25]) was “neither condition (DTT or DTNB) altered the peak current amplitudes” and the “effect on peak current amplitudes” value (hGluN1-4a/hGluN2B [1]) was “reduced the peak current amplitudes”. The “effect on peak current amplitudes” value (hGluN1-4a-C744Y/hGluN2B; pretreatment with 4 mM DTT, 2 min) was “did not affect”.

For `NCC(=O)O` [glycine], the EC50 (GluN1-C454S/GluN2B) is given as 730 nM, the EC50 (GluN1-C455S/GluN2B) is given as 250 nM and the EC50 (GluN1-C436S/GluN2B) is given as 720 nM. The EC50 [2] was 2620 nM, the “Glycine h (Hill coefficient)” value [3] was 0.80 ± 0.03 and the EC50 ([3]; read-out: Glycine EC50) was 590 ± 80 nM. The EC50 [4] was 700 nM, the “Glycine h (Hill coefficient)” value [5] was 1.47 ± 0.08 and the EC50 ([5]; read-out: Glycine EC50) was 3010 ± 410 nM. The “h (Hill coefficient), glycine” value [6] was 0.88 ± 0.09, the EC50 ([6]; read-out: Glycine EC50) was 213000 ± 30800 nM and the “Glycine h (Hill coefficient)” value (YFP-hGluN1-1a/hGluN3A) was 0.61 ± 0.02. For the same molecule, the EC50 (YFP-hGluN1-1a/hGluN3A; read-out: Glycine EC50) was 70500 ± 10700 nM, the “Glycine h (Hill coefficient)” value (YFP-hGluN1-1a/hGluN2B) was 0.83 ± 0.06 and the “Glycine h (Hill coefficient)” value [7] was 0.75 ± 0.03. For the same molecule, the EC50 ([7]; read-out: Glycine EC50) was 368000 ± 51000 nM, the “Glycine h (Hill coefficient)” value (YFP-hGluN1-1a/hGluN2A) was 1.46 ± 0.07 and the EC50 (YFP-hGluN1-1a/hGluN2A; read-out: Glycine EC50) was 2910 ± 290 nM. The “h (Hill coefficient), glycine” value (YFP-GluN1-1a/GluN3A) was 1.26 ± 0.15 and the EC50 (YFP-GluN1-1a/GluN3A; read-out: Glycine EC50) was 52300 ± 13000 nM.

For `C[C@]12N[C@H](Cc3ccccc31)c1ccccc12` [MK-801, Dizocilpine], the τon-MK-801 [8] was 1,045.30 ± 112.94 ms, the τon-MK-801 [9] was 345.28 ± 25.68 ms and the τon-MK-801 [10] was 765.01 ± 74.13 ms. For the same molecule, the τon-MK-801 [11] was 910.61 ± 85.39 ms, the τon-MK-801 [12] was 2,612.49 ± 167.91 ms and the τon-MK-801 [13] was 1,038.07 ± 140.54 ms. For the same molecule, the τon-MK-801 [14] was 278.04 ± 55.79 ms, the τon-MK-801 (YFP-GluN1-1a/GluN2A) was 1,178.37 ± 93.82 ms and the τon-MK-801 (GluN1-4a/GluN2B) was 2,307.47 ± 151.45 ms. The τon-MK-801 [15] was 937.85 ± 78.10 ms, the τon-MK-801 (YFP-GluN1-1a/GluN2B) was 2,053.21 ± 117.07 ms and the τon-MK-801 [16] was 1,109.06 ± 65.15 ms. The τon-MK-801 [17] was 3,355.73 ± 243.72 ms, the τon-MK-801 [3] was 846.35 ± 52.08 ms and the τon-MK-801 [18] was 3,010.09 ± 193.67 ms. For the same molecule, the τon-MK-801 [19] was 486.89 ± 100.90 ms, the τon-MK-801 [20] was 1,988.70 ± 356.79 ms and the τon-MK-801 [5] was 240.25 ± 29.53 ms. The τon-MK-801 [21] was 987.68 ± 105.05 ms, the τon-MK-801 [22] was 2,040.87 ± 282.26 ms and the τon-MK-801 (YFP-hGluN1-1a/hGluN2B) was 2,008.90 ± 224.76 ms. For the same molecule, the τon-MK-801 (GluN1-4a/GluN2A) was 981.54 ± 19.11 ms and the τon-MK-801 (YFP-hGluN1-1a/hGluN2A) was 789.63 ± 58.54 ms.

For `CC12CC3CC(C)(C1)CC(N)(C3)C2` [memantine], the “h (Hill coefficient), memantine” value (hGluN1-4a/hGluN2A; [26]) was 1.04 ± 0.06, the “τoff 1 μM memantine” value (hGluN1-4a/hGluN2A; [27]) was 510.08 ± 40.38 ms and the “τon 1 μM memantine” value (hGluN1-4a/hGluN2A; [28]) was 440.47 ± 39.77 ms. For the same molecule, the “h (Hill coefficient), memantine” value (hGluN1-4a/hGluN2B [23]; [26]) was 1.04 ± 0.03, the “τoff 1 μM memantine” value (hGluN1-4a/hGluN2B [23]; [27]) was 758.93 ± 49.66 ms and the “τon 1 μM memantine” value (hGluN1-4a/hGluN2B [23]; [28]) was 708.99 ± 49.40 ms. For the same molecule, the neuronal death [24] was “reduced neuronal death”, the “h (Hill coefficient), memantine” value (hGluN1-4a-C744Y/hGluN2A; [26]) was 0.94 ± 0.06 and the “τoff 1 μM memantine” value (hGluN1-4a-C744Y/hGluN2A; [27]) was 458.37 ± 83.04 ms. The “τon 1 μM memantine” value (hGluN1-4a-C744Y/hGluN2A; [28]) was 292.14 ± 24.73 ms, the “h (Hill coefficient), memantine” value (hGluN1-4a-C744Y/hGluN2B; [26]) was 0.86 ± 0.05 and the “τoff 1 μM memantine” value (hGluN1-4a-C744Y/hGluN2B; [27]) was 811.87 ± 56.87 ms. The “τon 1 μM memantine” value (hGluN1-4a-C744Y/hGluN2B; [28]) was 519.40 ± 26.19 ms.
